The source of these data is publication PMC12301332, “Biased antagonism of a series of bicyclic CXCR2 intracellular allosteric modulators” (Frontiers in Pharmacology, 2025).

In assay [1] the target is T1, CXCR2 (Homo sapiens, UniProt P25025).
T1 construct: expressed in transfected cells
T1 sequence (P25025 1-360): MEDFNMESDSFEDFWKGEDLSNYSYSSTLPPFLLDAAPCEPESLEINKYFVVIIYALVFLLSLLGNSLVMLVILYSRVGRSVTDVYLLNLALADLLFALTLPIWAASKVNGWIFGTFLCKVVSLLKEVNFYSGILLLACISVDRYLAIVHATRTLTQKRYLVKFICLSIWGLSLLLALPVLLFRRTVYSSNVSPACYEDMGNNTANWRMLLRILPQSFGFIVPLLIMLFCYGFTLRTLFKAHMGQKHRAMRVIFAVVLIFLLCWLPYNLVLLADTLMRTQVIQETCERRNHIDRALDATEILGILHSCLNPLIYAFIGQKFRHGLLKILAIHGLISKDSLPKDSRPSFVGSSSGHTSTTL
Further details: method as in Boon et al., 2024. Conditions: agonist concentration used in NanoBRET assays; ref Boon et al., 2024; cited from earlier work.

Assay [2] deals with T1, CXCR2. Further details: method as in Boon et al., 2024. Conditions: agonist concentration used in NanoBRET assays; ref Boon et al., 2024; cited from earlier work. This is another data set of the same source.
Assay [3] deals with T1, CXCR2. The experiment in a line: NanoBRET-based G protein activation inhibition assay (REGA-SIGN Gαi1 dissociation) in HEK293A.CXCR2 cells. The format is cell-based. As to conditions: normalized to Imax of navarixin = 100%, n = 3. The protocol:
Cells were trypsinized and resuspended at 3 × 10^5 cell/mL in the growth medium, whereafter they were incubated for 2 hours at RT. Cells were transfected in suspension using FuGENE® HD Transfection Reagent at a 3:1 reagent to DNA ratio in Opti-MEMTM I Reduced-Serum Medium, with the final DNA concentration of 1 μg/μL. The transfection mixture was incubated for 10 min at RT before adding it to the cell suspension. Transfected cells were seeded at 3.0 × 10^4 cells/well in a white, clear, flat-bottom 96-well plate coated with 100 μg/mL poly-D-lysin ([…], Sigma Aldrich) and incubated for 48 h at 37°C and 5% CO2. […] (2023)]. Following the 48-h incubation period, cells were washed with the assay buffer. Compounds were serially diluted in 1:500 Nano-Glo® Vivazine^TM working solution (#N2581, Promega), and 90 μL of compound/Vivazine mix was added, followed by incubation for 45 min at 37°C and 5% CO2. Plates were transferred to the FLIPR Penta system (Molecular Devices) at 37°C, and all steps onward are automated and performed by the FLIPR Penta system. After a 10-min equilibration period, the baseline BRET signal was determined by five consecutive reads followed by automatic administration of 10 μL of 10× ligand (Table 1) to the cell plate. Changes in the BRET signal was measured for 10 min, with each read spaced by 2.5 s. […] BRET ratios were extracted from ScreenWorks software (Molecular Devices) and represent the ratio between the acceptor emission of […]2 or mNG (G protein or β-arrestin recruitment, respectively) and NLuc donor emission. The basal BRET ratio was defined as the average BRET ratio of the five consecutive readings preceding ligand addition. Changes in BRET values post ligand administration (ΔBRET) were calculated for each well as a percentage difference to the previously defined basal BRET ratio. Average ΔBRET values were baseline corrected by subtracting the average negative control BRET ratio (unstimulated condition). […] AUCs were normalized to the positive control (stimulated condition); whereafter, dose-response curves were fitted to log (inhibitor) vs response (three parameters) in GraphPad 10.2.0 (GraphPad Software). […] Calculation 1: calculation of the BRET signal. • 1. […] NC correctedΔBRET=Δ[…]. • 4. a. Neg AUC of NC correctedΔBRET=Gα activation read out. b. Pos AUC of NC correctedΔBRET=β-arrestin recruitment.
Background: In BRET a luciferase serves as donor, and the signal depends on an acceptor being close.

Assay [4] deals with T1, CXCR2. The experiment in a line: Bias analysis (bias plot, bias index) of β-arrestin1 recruitment inhibition versus Gαi1 activation inhibition, navarixin as reference. Format: cell-based. Conditions: all ELR+ chemokines; navarixin as reference antagonist. How it is done: For signaling bias calculations, constraints were set to bottom values equal to zero. The calculated top values generated by nonlinear fit log (inhibitor) vs response (three parameters) in GraphPad 10.2.1 were taken as Imax. […] The bias index values were calculated, as is shown in calculation 2. Briefly, log(Imax/IC50) was calculated. […] Finally, the bias index was calculated by subtracting the ∆log (Imax/IC50) of the tested compound from the stated reference pathway from that of the pathway of interest. […] The statistical significance of H1 was evaluated using a one-sample T-test with Benjamini-Hochberg correction applied for multiple comparisons, whereas H2 was assessed using a one-way ANOVA followed by Tukey’s test.
Bias index=∆LogImax/IC50P1:β−arr1−∆LogImax/IC50P2:Gai1 .
Bias plots are equimolar comparisons between the two pathways of interest.

Assay [5] deals with T1, CXCR2. Kind of assay: NanoBRET β-arrestin1 recruitment inhibition assay (NanoLux) in HEK293A cells. The format is cell-based. As to conditions: normalized to Imax of navarixin = 100%, n = 3. How it is done: Cells were trypsinized and resuspended at 3 × 10^5 cell/mL in the growth medium, whereafter they were incubated for 2 hours at RT. Cells were transfected in suspension using FuGENE® HD Transfection Reagent at a 3:1 reagent to DNA ratio in Opti-MEMTM I Reduced-Serum Medium, with the final DNA concentration of 1 μg/μL. The transfection mixture was incubated for 10 min at RT before adding it to the cell suspension. Transfected cells were seeded at 3.0 × 10^4 cells/well in a white, clear, flat-bottom 96-well plate coated with 100 μg/mL poly-D-lysin ([…], Sigma Aldrich) and incubated for 48 h at 37°C and 5% CO2. HEK293A cells were transiently co-transfected with plasmids encoding β-arrestin1 protein tagged with NLuc (donor) and CXCR2 protein tagged with mNeonGreen (mNG) acceptor in a 1:10 donor to acceptor ratio, as described previously ([Luís et al., 2022]). All subsequent steps are identical to those in “NanoBRET-based G protein activation inhibition assay,” which are described above. Measurements were acquired using a 440- to 480-nm donor emission filter (#0200-6179, Molecular Devices) and a 515- to 575-nm acceptor emission filter (#0200-6203, Molecular Devices) BRET ratios were extracted from ScreenWorks software (Molecular Devices) and represent the ratio between the acceptor emission of […]2 or mNG (G protein or β-arrestin recruitment, respectively) and NLuc donor emission. The basal BRET ratio was defined as the average BRET ratio of the five consecutive readings preceding ligand addition. Changes in BRET values post ligand administration (ΔBRET) were calculated for each well as a percentage difference to the previously defined basal BRET ratio. Average ΔBRET values were baseline corrected by subtracting the average negative control BRET ratio (unstimulated condition). […] AUCs were normalized to the positive control (stimulated condition); whereafter, dose-response curves were fitted to log (inhibitor) vs response (three parameters) in GraphPad 10.2.0 (GraphPad Software). […] Calculation 1: calculation of the BRET signal. • 1. […] NC correctedΔBRET=Δ[…]. • 4. a. Neg AUC of NC correctedΔBRET=Gα activation read out. b. Pos AUC of NC correctedΔBRET=β-arrestin recruitment.

“CXCL6: recombinant human ELR+ chemokine, CXCR2 ligand (PeproTech)”: in the assay with CXCR2 [1], the “β-arrestin EC80” value is listed as 168.00 nM. Besides, the “G-protein EC80” value with CXCR2 [2] is given as 17.12 nM.

Regarding “CXCL5: recombinant human ELR+ chemokine, CXCR2 ligand (PeproTech)”, the “β-arrestin EC80” value with CXCR2 [1] is 86.19 nM. In addition, the “G-protein EC80” value in the assay with CXCR2 [2] is 5.16 nM.

As to `C[C@H](CO)Nc1nc(SCc2cccc(Cl)c2F)nc2[nH]c(=O)sc12` [AZ10397767, reference compound], the “Imax Gαi1 (maximum observed inhibitory effect)” value is recorded as 100% on CXCR2 [3] (CXCL1 at EC80); 100% on CXCR2 [3] (CXCL2 at EC80); 98.8% on CXCR2 [3] (CXCL3 at EC80); 95.7% at CXCR2 [3] (CXCL5 at EC80); 100% on CXCR2 [3] (CXCL6 at EC80); 100% at CXCR2 [3] (CXCL7 at EC80). Besides, the “Imax Gαi1 (maximum observed inhibitory effect)” value on CXCR2 [3] (CXCL8 at EC80) was found to be 98.5%. The “bias profile (bias plot), β-arrestin1 recruitment inhibition vs Gαi1 activation inhibition” value at CXCR2 [4] is on record as “bias toward the inhibition of β-arrestin1 recruitment”. Also, the “Imax βarr1 (maximum observed inhibitory effect)” value at CXCR2 [5] (CXCL1 at EC80), at CXCR2 [5] (CXCL2 at EC80), at CXCR2 [5] (CXCL3 at EC80), on CXCR2 [5] (CXCL5 at EC80), on CXCR2 [5] (CXCL6 at EC80) and at CXCR2 [5] (CXCL7 at EC80) was 100% in each case. Also, at CXCR2 [5] (CXCL8 at EC80), the “Imax βarr1 (maximum observed inhibitory effect)” value turned out to be 100%.

With “CXCL2: recombinant human ELR+ chemokine, CXCR2 ligand (PeproTech)”, the “β-arrestin EC80” value with CXCR2 [1] is 147.8 nM. Also, in the assay with CXCR2 [2], the “G-protein EC80” value is recorded as 2.15 nM.

In the case of “CXCL8: recombinant human ELR+ chemokine, CXCR2 ligand (PeproTech)”, the “β-arrestin EC80” value in the assay with CXCR2 [1] was 17.29 nM. Also, the “G-protein EC80” value in the assay with CXCR2 [2] was 4.16 nM.

“CXCL1: recombinant human ELR+ chemokine, CXCR2 ligand (PeproTech)”: in the assay with CXCR2 [1], the “β-arrestin EC80” value is given as 59.18 nM. Moreover, the “G-protein EC80” value in the assay with CXCR2 [2] is 3.20 nM.

For the molecule “CXCL3: recombinant human ELR+ chemokine, CXCR2 ligand (PeproTech)”, the “β-arrestin EC80” value with CXCR2 [1] is given as 100.10 nM. In addition, the “G-protein EC80” value with CXCR2 [2] is on record as 8.92 nM.

B1: CXCL7: recombinant human ELR+ chemokine, CXCR2 ligand (PeproTech) (protein, UniProt P02775 59-128, looked up)
Neutrophil-activating peptide …: AELRCMCIKTTSGIHPKNIQSLEVIGKGTHCNQVEVIATLKDGRKICLDPDAPRIKKIVQKKLAGDESAD
modifications: Neutrophil-activating peptide 2
B1: in the assay with CXCR2 [1], the “β-arrestin EC80” value is 100.70 nM. Further, the “G-protein EC80” value with CXCR2 [2] is 4.09 nM.
